The values below come from paper PMC5931191, “Reversible stapling of unprotected peptides via chemoselective methionine bis-alkylation/dealkylation” (Chemical Science, 2018).

“Also recorded” adds a separate entry of the source. Where a SMILES comes first, the peptide text is derived from it.

One data set relates to trypsin. The experiment in a line: In vitro trypsin digestion assay. The following applies: peptide 1 mM in PBS pH 7.4, 100 µL + 1 µL trypsin (1 mg/mL) (1%), 37 °C, different time intervals, LC/MS peak detection at 254 nm; compared with linear peptide 1; Fig. 3C.
The test system of data set [1] is U2OS cells. The experiment in a line: LDH release assay.
Description: concentration of 10 μM in FBS free medium and incubated with the cells for 4 hours at 37°C. After that, the medium
was removed and the cells were gently washed 2 times with PBS and then fixed with 4% paraformaldehyde (Alfa
Aesar, MA) in PBS for 10 minutes. The cells were again washed 2 times with PBS and stained with 1μg/ml 4', 6-
diamidino-2-phenylindole (DAPI) (Invitrogen, CA) in PBS for 5 minutes. Images of peptide localization in cells were
taken on PerkinElmer confocal microscopy under the same parameters and processed using Volocity software package
LDH release was performed by using Cytotoxicity LDH Assay Kit-WST®. Briefly, ~10000 cells suspension was added
to each well of the 96 well plate and allowed to grow overnight. The cells were then incubated with the fresh medium
containing serial dilution of peptides at 37 °C for 4h. Lysis Buffer was added as positive control at 37 °C for 30min.
After that, 50μL of the incubation medium were taken out to another 96 well plate followed the addition of 50μL Working
Solution and incubated for 30min at room temperature. Then 25μL Stop Solution was added into the wells. The
absorbance at 490 nm was measured by a microplate reader (Perkin Elmer, Envision, 2104 Multilabel Reader). The
LDH release activity was calculated by (LDH% samples-LDH% blank) / (LDH% positive control -LDH% blank).
The nature of data set [2]: Met bis-alkylation (bis-sulfonium staple) with linker c, 1,4-bis(bromomethyl)benzene (1.2 equiv), 1% HCOOH (pH ~3), 24 h. The following applies: the molecule shown is the open-chain precursor, 25-membered ring, MeCN/H2O 30:70 (SI: 1:3) + 1% HCOOH, small amount of DMF, 10.0 mM, 25.0 °C.
The target of data set [3] is T1, Recombinant Human Caspase-3 protein (Homo sapiens, UniProt P42574).
T1 construct: purchased RnD SYSTEMS
T1 sequence (P42574 29-175 limits assumed): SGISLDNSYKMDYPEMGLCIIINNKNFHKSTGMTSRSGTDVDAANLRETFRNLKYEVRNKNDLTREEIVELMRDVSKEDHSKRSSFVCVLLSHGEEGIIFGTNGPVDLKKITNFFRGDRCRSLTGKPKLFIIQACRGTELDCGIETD
T1 sequence (P42574 176-277 limits assumed): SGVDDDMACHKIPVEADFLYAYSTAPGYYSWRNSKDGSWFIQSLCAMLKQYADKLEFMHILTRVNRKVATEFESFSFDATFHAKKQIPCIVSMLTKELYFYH
In words: In vitro caspase-3 AMC release assay. It is filed as biochemical. The settings on record: peptide 5 µM, caspase-3 0.4 ng/µL, 1 h, read every 5 min, Ex 340 nm / Em 450 nm, triplicates; Fig. 5C. As for the experimental part: 8. AMC release Assays.
In vitro Caspase-3 assay:
(§1) AMC conjugated peptides 16-19 (50 μL, 5μM)
All experiments were performed in triplicates with […]
blank control) to induce the activity of caspase-3. […]
(§2) collected by centrifugation.
(§3) Besides, an induced well pretreated with the caspase pan-

Data set [4] can be described thus: Dealkylation of cyclic peptides with 2-mercaptopyridine (regeneration of linear peptide). It is filed as physicochemical. The settings on record: chemical stability under reductive conditions; 2-mercaptopyridine (10 equiv., 10 mM) in PBS pH 7.4, 37 °C, different time points, HPLC / LC-MS; Fig. 3A, B. As for the experimental part:
in linear gradient mixtures.
1. Preparation of alkylated sulfonium peptides[1]
The alkylated reagent (1.2 equiv)
Then the solution was purified by reversed […]
peptide can be gradually regenerated to the linear peptide.
To 100 µL of each solution 1 µL […]
linear gradient from 10% to 70% acetonitrile over 15min. […]
quantified by LC/MS-based peak detection at 254nm.
4. Flow Cytometry Analysis
T47D cells were seeded in
37°C), washed with PBS, and resuspended in PBS. […]
cytometer (Becton Dickinson) and CellQuest Pro (or CFlow plus).

Another data set has as its system HeLa cells. The experiment in a line: Flow cytometry cellular uptake in HeLa cells. It is filed as cell-based. The settings on record: for cellular uptake efficiency (flow cytometry) in the presence of serum: 10% fetal bovine serum, 5, 10, 20 µM, Fig. S5. On the technique in general: In flow cytometry, cells or beads pass a laser one at a time.
The test system of data set [5] is U2OS cells. The experiment in a line: Flow cytometry cellular uptake in U2OS cells. It is filed as cell-based. The following applies: FITC-labelled peptides 10 µM, 4 h, 37 °C, FACS, Fig. S4 (legend not available).
Data set [6] addresses T2, caspase-3 in U2OS cell lysates (Homo sapiens, UniProt P42574).
T2 construct: endogenous in cells; host or cells: U2OS cells, ABT-737-induced, lysed
T2 sequence (P42574 29-175 limits assumed): T1 sequence (P42574 29-175 limits assumed)
T2 sequence (P42574 176-277 limits assumed): T1 sequence (P42574 176-277 limits assumed)
The experiment in a line: AMC release assay in U2OS cell lysate. The following applies: peptide 5 µM, 24 h, Fig. 5D. It is filed as biochemical. Here is the method:
8. AMC release Assays. […]
as §1
All experiments were performed in triplicates with
blank control) to induce the activity of caspase-3.
as §2, §3

Data set [7] relates to U2OS cells. The experiment in a line: AMC release (caspase-3) assay in live U2OS cells. It is filed as cell-based. The following applies: ABT-737 10 µM 1 h, peptide 5 µM, after incubation for 12 hours, Fig. S9. Here is the method:
(§4) experiments were performed in triplicates with consistent results.
(§5) 100μl U2OS cells were cultured in 96 well plate (~5000 cells / well) overnight, then 0.1 μl of ABT-737 stock solution (10 mM, 1 h) was added into half of the wells to induce apoptosis. After that, peptide 16, 17i, 18i, and 19 stock solution (final concentration of 5 µM) were added into the cells. At different time points, the fluorescence of the wells treated […]
(§6) difference in fluorescence yields between ABT-737 treated and untreated cells was plotted as a function of time to represent the caspase-3 activities in live cells.
(§7) U2OS cells were cultured in 24 well plates with imaging dishes (50000 cells/well) and then treated with peptide 17i, 18i and 19 (100µM) in FBS free medium for 4h. Then the medium was removed and the cells were cultured with a fresh medium containing 10mM GSH for 8h, 16h, or 24h. The release efficiency of AMC was monitored using fluorescence microscopy with pseudo-colored in blue as described.
(§8) Table S1. Conversion of peptide 1 to peptide 1a in different solvents at different time intervals.
(§9) Table S2. Peptide sequences and observed masses following HPLC purification. Calculated and Found m/z are presented as [M+H] + / [M/2+H] +/ [M/3+H] +/ [M/4+H] +.
(§10) Peptide Sequence Calculated mass Observed mass
(§11) (1 picture or pasted object on this page, not shown here)

Data set [8] has as its system U2OS cells. In words: Confocal microscopy of AMC release in U2OS cells. It is filed as cell-based. As for the experimental part:
as §4, §5, §6, §7, §8, §9, §10, §11

Description for trypsin: LC-MS spectra were carried out on SHIMAZU LC-MS 8030 (ESI-MS) in positive ion mode.
trypsin (1 mg/mL) was added and incubated at 37°C. At different time interval, the solution was mixed with 12%
trichloroacetic acid (H2O/CH3CN: 2:1) to inactivate the trypsin.
the peptide remaining was examined by LC/MS with a grace smart C18 250× 4.6mm column, using a 4% per minute
linear gradient from 10% to 70% acetonitrile over 15min. The amount of starting material left in each sample was

In the case of `CC(=O)N[C@@H](Cc1c[nH]c2ccccc12)C(=O)N[C@H]1CC[S+](C)Cc2ccc(cc2)-c2ccc(cc2)C[S+](C)CC[C@@H](C(N)=O)NC(=O)[C@H](CC(=O)O)NC(=O)CNC(=O)[C@H](CCCNC(=N)N)NC1=O` (stereo partly drawn) [1i], in the data set with trypsin, the “trypsin stability (peptide remaining)” value is on record as “significantly enhanced the trypsin stability”. `CCCC[C@@H]1NC(=O)[C@H](CC(=O)O)NC(=O)[C@@H](NC(C)=O)CSCc2ccc(cc2)-c2ccc(cc2)CSC[C@H](C(=O)N[C@@H](CC(=O)O)C(=O)Nc2ccc3c(C)cc(=O)oc3c2)NC1=O` [18i] (HELM PEPTIDE1{[ac].C.D.[Nle].[dC].D.[Cc1cc(=O)oc2cc(N[*:1])ccc12]}|CHEM1{[c1cc(-c2ccc(C[*:2])cc2)ccc1C[*:1]]}$PEPTIDE1,CHEM1,2:R3-1:R1|PEPTIDE1,CHEM1,5:R3-1:R2$$$V2.0): the “membrane toxicity (LDH release)” value with U2OS cells [1] (160 µM, 4 h, 10% serum, Fig. S8) is recorded as “negligible membrane toxicity”. In the case of `CSCC[C@H](NC(=O)CNC(=O)[C@H](Cc1ccc(O)cc1)NC(=O)[C@@H]1CCCN1C(=O)[C@H](CC[S+](C)Cc1ccc(CBr)cc1)NC(=O)[C@H](Cc1c[nH]c2ccccc12)NC(C)=O)C(=O)N[C@@H](C)C(N)=O` (stereo partly drawn) [Ac-Trp-Met-Pro-Tyr-Gly-Met-Ala-NH2], in [2], the ring closure, conversion by HPLC was determined as 81%. In the case of `CCCC[C@H](NC(=O)[C@H](CC(=O)O)NC(=O)[C@H](CCSC)NC(C)=O)C(=O)N[C@@H](CCSC)C(=O)N[C@@H](CC(=O)O)C(=O)Nc1ccc2c(C)cc(=O)oc2c1` [compound 17] (HELM PEPTIDE1{[ac].M.D.[Nle].M.D.[Cc1cc(=O)oc2cc(N[*:1])ccc12]}$$$$V2.0), the “AMC release / susceptibility to caspase-3 in vitro” value in data set [3] is “quick degradation”. For `CCCC[C@H](NC(=O)[C@H](CC(=O)O)NC(=O)[C@H](CCCNC(=N)N)NC(=O)[C@H](CCCNC(=N)N)NC(=O)[C@H](CCCNC(=N)N)NC(=O)[C@H](CCCNC(=N)N)NC(=O)[C@H](CCCNC(=N)N)NC(=O)[C@H](CCCNC(=N)N)NC(=O)[C@H](CCCNC(=N)N)NC(=O)[C@H](CCCNC(=N)N)NC(=O)[C@H](CCCNC(=N)N)NC(C)=O)C(=O)N[C@@H](CC)C(=O)N[C@@H](CC(=O)O)C(=O)Nc1ccc2c(C)cc(=O)oc2c1` [compound 19] (HELM PEPTIDE1{[ac].R.R.R.R.R.R.R.R.R.D.[Nle].[Abu].D.[Cc1cc(=O)oc2cc(N[*:1])ccc12]}$$$$V2.0), the membrane lysis effect result in the data set on U2OS cells [1] (Fig. S7B (confocal, 100 µM) and S8 (LDH release, 4 h, 10% serum)) is “membrane lysis effect”. On to “Ac-W-(cyclo-c)-MRGDM-NH2 (sidechain bridge or staple) [1c, peptide 1 Met bis-alkylated with linker c]”, for which the “regeneration of the parental linear peptide 1 (dealkylation)” value in [4] was “time-dependent regeneration of the parental peptide 1”. On the same count and under the same terms, for “Ac-W-(cyclo-d)-MRGDM-NH2 (sidechain bridge or staple) [1d, peptide 1 Met bis-alkylated with linker d]” the value was “time-dependent regeneration of the parental peptide 1”. Regarding “FITC-βA-(cyclo-a)-MRRRM-NH2 (sidechain bridge or staple) [11a, peptide 11 cyclized using linker a]”, the “cellular uptake efficiency (flow cytometry) in the presence of serum” value (“cellular uptake efficiency … of serum” for short) in the data set on HeLa cells was “same tendency as in the absence of serum”.

With “FITC-βA-(cyclo-c)-MRRRM-NH2 (sidechain bridge or staple) [11c, peptide 11 cyclized using linker c]”, the “cellular uptake efficiency (flow cytometry)” value is recorded as “best uptake” with U2OS cells [5] and “best uptake; also recorded: better cellular uptake than the thioether cyclic peptide” in the data set with HeLa cells (FITC-labelled peptides 10 µM, 4 h, 37 °C, absence of serum, trypsin wash, FACS, Fig. 4C). The “cellular uptake efficiency … of serum” value with HeLa cells is “same tendency as in the absence of serum”. Take “FITC-βA-(cyclo-i)-MRRRM-NH2 (sidechain bridge or staple) [11i, peptide 11 cyclized using linker i]”: the “cellular uptake efficiency … of serum” value in the data set on HeLa cells is “same tendency as in the absence of serum”. Consider “cyclo-i-Met-Asp-Nle-Met-Asp-AMC (sidechain bridge or staple) [17i, Met bis-alkylated peptide 17 with linker i]”, for which, in data set [3], the “AMC release / susceptibility to caspase-3 in vitro” value was “not a suitable substrate for caspase-3”. The “AMC release in cell lysate pretreated with pan caspase inhibitor FMK” value in data set [6] (U2OS lysate, FMK 100 µM) was “reduced significantly”. For the same compound, in data set [6] (lysate of U2OS cells induced with ABT-737 (10 µM, 1 h), without FMK, triplicates), the “time-dependent AMC release in cell lysate” value is recorded as “increased gradually during 24 h”. Further, the “caspase-3 activity (AMC release) in live cells” value in the data set with U2OS cells [7] is listed as “higher caspase-3 activity than the linear peptide 16, while lower than 19”. In the data set with U2OS cells [8] (peptide 50 µM 4 h with 10% fetal bovine serum, GSH 10 mM 16 h, ABT-737 10 µM 1 h, Fig. S7A), the “AMC fluorescence in cells (confocal) in the presence of serum” value is “weaker fluorescence intensity”. Moreover, in the data set with U2OS cells [8] (peptide 100 µM 4 h in FBS free medium, then 10 mM GSH 8, 16 or 24 h, then ABT-737 10 µM 1 h, Fig. 5E, S7B), the “AMC fluorescence in cells (confocal, 405 nm excitation)” value is “lighted gradually”.
